{
  "source": "paper PMC6198068",
  "about": "“Discovery of a Novel Nav1.7 Inhibitor From Cyriopagopus albostriatus Venom With Potent Analgesic Efficacy” (Frontiers in Pharmacology, 2018)",
  "key": {"[1]": {"assay": "Adverse effects at the doses used in the mouse pain models", "type": "in vivo, ICR mice", "conditions": "dose of Ca2a used in this study (50–200 μg/kg i.p.)", "method": "(§1) The ICR mice (18–22 g) used in this study were purchased from the Experimental Animal Center of SLac-kinda (Changsha, China). The animals were maintained at 20–25°C and freely allowed to standard rodent chow and water ad libitum. Ethical approval for in vivo experiments in animals was approved by the Animal Care and Use Committee (ACUC) at the Hunan Province Animal Management Office (HPAMO)."}, "[2]": {"system": "formalin-induced paw licking in mice", "assay": "Formalin-induced paw licking", "type": "in vivo, ICR mice", "conditions": "for paw licking time, Phase I: control 90.3 ± 6.6 s; for paw licking time, Phase I / paw licking time, Phase II: mean ± SEM, n = 6–8; for paw licking time, Phase II: control 197.7 ± 20.7 s", "method": "as §1\nA formalin test was performed according to the previous method ([Owoyele et al., 2005]). […] The time spent licking the injected paw by each mouse was recorded by a digital stopwatch during Phase I (0–15 min post-injection) and Phase II (15–40 min post-injection)."}, "Nav1.4/Q657E": {"biological_target": "T1, Nav1.4/Q657E (Rattus norvegicus, UniProt P15390, Q657E)", "T1 construct": "expressed in transfected cells; host or cells: HEK293T", "T1 sequence (P15390 whole entry Q657E)": "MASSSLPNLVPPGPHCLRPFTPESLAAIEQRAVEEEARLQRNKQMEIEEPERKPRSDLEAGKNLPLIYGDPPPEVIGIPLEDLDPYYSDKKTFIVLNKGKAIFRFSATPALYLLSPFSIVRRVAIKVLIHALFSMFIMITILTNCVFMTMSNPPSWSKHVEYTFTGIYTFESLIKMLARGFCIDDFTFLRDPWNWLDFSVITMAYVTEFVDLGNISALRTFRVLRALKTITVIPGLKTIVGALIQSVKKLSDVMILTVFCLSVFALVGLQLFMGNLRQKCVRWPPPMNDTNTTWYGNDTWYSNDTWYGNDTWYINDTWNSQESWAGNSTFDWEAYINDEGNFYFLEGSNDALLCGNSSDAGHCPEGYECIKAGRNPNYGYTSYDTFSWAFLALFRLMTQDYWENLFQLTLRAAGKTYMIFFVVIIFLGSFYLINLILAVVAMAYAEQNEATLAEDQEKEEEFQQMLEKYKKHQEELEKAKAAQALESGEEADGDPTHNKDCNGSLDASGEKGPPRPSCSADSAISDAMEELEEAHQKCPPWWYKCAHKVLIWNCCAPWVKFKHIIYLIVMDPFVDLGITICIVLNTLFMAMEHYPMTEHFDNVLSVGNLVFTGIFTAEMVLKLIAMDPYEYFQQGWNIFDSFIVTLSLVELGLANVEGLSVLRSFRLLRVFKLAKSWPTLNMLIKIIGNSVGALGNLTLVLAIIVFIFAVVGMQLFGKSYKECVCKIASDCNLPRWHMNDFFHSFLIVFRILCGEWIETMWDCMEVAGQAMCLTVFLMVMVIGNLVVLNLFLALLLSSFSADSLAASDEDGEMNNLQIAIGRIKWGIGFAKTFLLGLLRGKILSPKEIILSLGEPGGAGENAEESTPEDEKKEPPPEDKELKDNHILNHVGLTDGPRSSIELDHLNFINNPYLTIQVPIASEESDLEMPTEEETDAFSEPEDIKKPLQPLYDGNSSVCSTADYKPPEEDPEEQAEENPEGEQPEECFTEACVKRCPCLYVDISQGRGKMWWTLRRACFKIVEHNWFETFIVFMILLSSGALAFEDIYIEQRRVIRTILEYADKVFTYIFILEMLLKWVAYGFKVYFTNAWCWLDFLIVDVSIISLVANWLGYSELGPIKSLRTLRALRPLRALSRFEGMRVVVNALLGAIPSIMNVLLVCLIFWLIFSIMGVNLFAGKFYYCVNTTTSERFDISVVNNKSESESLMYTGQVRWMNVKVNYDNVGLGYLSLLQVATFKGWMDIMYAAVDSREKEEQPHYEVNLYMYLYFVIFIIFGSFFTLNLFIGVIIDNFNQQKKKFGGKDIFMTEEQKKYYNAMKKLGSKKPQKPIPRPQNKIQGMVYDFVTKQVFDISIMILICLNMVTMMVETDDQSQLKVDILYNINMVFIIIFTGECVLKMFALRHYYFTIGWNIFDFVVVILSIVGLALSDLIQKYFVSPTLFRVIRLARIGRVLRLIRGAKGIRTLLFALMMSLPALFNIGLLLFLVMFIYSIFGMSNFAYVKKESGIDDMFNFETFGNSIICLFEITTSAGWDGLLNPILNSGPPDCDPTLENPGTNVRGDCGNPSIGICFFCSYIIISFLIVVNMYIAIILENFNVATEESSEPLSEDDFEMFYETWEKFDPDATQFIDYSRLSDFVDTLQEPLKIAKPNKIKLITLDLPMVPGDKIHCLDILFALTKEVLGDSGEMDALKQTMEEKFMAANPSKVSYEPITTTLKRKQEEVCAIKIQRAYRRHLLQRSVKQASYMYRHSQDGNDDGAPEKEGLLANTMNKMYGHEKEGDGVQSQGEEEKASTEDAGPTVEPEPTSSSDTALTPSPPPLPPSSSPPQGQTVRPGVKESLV", "assay": "Whole-cell patch-clamp, Nav1.4/Q657E in HEK293T cells", "type": "cell-based", "excerpt": "(§2) The cDNA genes encoding rat Nav1.4 and human Nav1.7 were subcloned into vectors pRGB4 and pcDNA3.1-mod, respectively. Mutations of rNav1.4 (N655D, Q657E, and N655D/Q657E) and hNav1.7 (D816N, E818Q, and D816N/E818Q) were constructed using the Gene Tailor Site-Directed Mutagenesis system (Invitrogen, Carlsbad, CA, United States), according to the manufacturer’s instructions. Nav1.2–Nav1.7 and mutant plasmids together with eGFP were transiently transfected into HEK293T cells while Nav1.8 together with eGFP was transiently transfected into ND7/23 cells by Lipofectamine 2000 (Invitrogen, Carlsbad, CA, United States). Additionally, plasmids β1- and β2-eGFP encoding the human β1 and β2 subunits, respectively, were co-transfected with those encoding WT Nav1.7 and Nav1.7 mutations in HEK293T cells. […] Cells with green fluorescent protein fluorescence were selected for whole-cell patch-clamp recordings 24 h after transfection.\n(§3) Whole-cell patch-clamp recordings were performed at room temperature (20–25°C) using an EPC 10 USB Patch Clamp Amplifier (HEKA, Elektronik, Lambrecht, Germany). […] Data was analyzed by software Igo Pro 6.10A (WaveMetrics, Lake Oswego, OR, United States), SigmaPlot 10.0 (Sigma-Aldrich, St. Louis, MO, United States), OriginPro 8 (OriginLab Corp., Northampton, MA, United States), and GraphPad Prism 5 (GraphPad Software, San Diego, CA, United States). […]"}, "Nav1.7/E818Q": {"system": "Nav1.7/E818Q", "assay": "Whole-cell patch-clamp, Nav1.7/E818Q in HEK293T cells", "type": "cell-based, human", "conditions": "1 μM, n = 5 cells", "excerpt": "as §2, §3"}},
  "note": "Where a SMILES comes first, the peptide text is derived from it. Bridges are numbered along the chain shown (N, C = ends).",
  "data": [
    {"smiles": "CC(C)C[C@H](NC(=O)[C@H](CC(=O)O)NC(=O)[C@H](Cc1ccc(O)cc1)NC(=O)[C@H](CCCCN)NC(=O)[C@@H]1CSSC[C@@H]2NC(=O)[C@H](CCCCN)NC(=O)[C@H](CC(=O)O)NC(=O)[C@H](CC(N)=O)NC(=O)[C@H](CO)NC(=O)[C@@H]3CCCN3C(=O)[C@H](CC(N)=O)NC(=O)[C@@H]3CSSC[C@H](NC(=O)[C@H](C(C)C)NC(=O)[C@H](CC(C)C)NC(=O)[C@H](CO)NC(=O)[C@H](CO)NC(=O)[C@H](CO)NC(=O)[C@H](CCCCN)NC(=O)[C@H](CSSC[C@H](NC(=O)[C@H](C)N)C(=O)N[C@@H](CC(C)C)C(=O)NCC(=O)N[C@@H](Cc4ccccc4)C(=O)NCC(=O)N[C@@H](CCC(=O)O)C(=O)N[C@@H](CCCCN)C(=O)N3)NC2=O)C(=O)N[C@@H](CO)C(=O)N[C@@H](CCC(N)=O)C(=O)N[C@@H](CCCCN)C(=O)N[C@@H](Cc2c[nH]cn2)C(=O)N[C@@H](CCCCN)C(=O)N[C@@H](Cc2c[nH]c3ccccc23)C(=O)N1)C(=O)O", "note": "[Ca2a] (H-ACLGFGEKCNPSNDKCCKSSSLVCSQKHKWCKYDL-OH; disulfide 2-17, 9-24, 16-31 (inferred); N-terminus and C-terminus assumed)", "values": [
      {"measurement": "adverse effects", "setting": "[1]", "result": "does not cause significant adverse effects"},
      {"measurement": "paw licking time, Phase I", "setting": "[2]; 0–15 min, 50 μg/kg i.p. 30 min before 5% formalin", "result": "80.1 ± 4.6", "unit": "s"},
      {"measurement": "paw licking time, Phase I", "setting": "[2]; 0–15 min, 100 μg/kg i.p. 30 min before 5% formalin", "result": "79.4 ± 9.5", "unit": "s"},
      {"measurement": "paw licking time, Phase I", "setting": "[2]; 0–15 min, 200 μg/kg i.p. 30 min before 5% formalin", "result": "75.6 ± 7.7", "unit": "s"},
      {"measurement": "analgesic effect on Phase I compared to control", "setting": "[2]; 0–15 min, Ca2a 50, 100, 200 μg/kg, morphine 100 μg/kg, i.p.", "result": "no analgesic effect"},
      {"measurement": "paw licking time, Phase II", "setting": "[2]; 15–40 min, 50 μg/kg i.p. 30 min before 5% formalin", "result": "100.9 ± 16.2", "unit": "s"},
      {"measurement": "paw licking time, Phase II", "setting": "[2]; 15–40 min, 100 μg/kg i.p. 30 min before 5% formalin", "result": "67.2 ± 20.2", "unit": "s"},
      {"measurement": "paw licking time, Phase II", "setting": "[2]; 15–40 min, 200 μg/kg i.p. 30 min before 5% formalin", "result": "40.5 ± 7.1", "unit": "s"},
      {"measurement": "analgesic effect on Phase II", "setting": "[2]; 15–40 min, 50, 100, 200 μg/kg i.p.", "result": "significant analgesic effect in a dose-dependent manner"},
      {"measurement": "analgesia relative to morphine, formalin test", "setting": "[2]; formalin, hot plate and writhing together, Ca2a vs morphine", "result": "dose-dependently equipotent or stronger analgesia than morphine"},
      {"measurement": "inhibition of peak current of Nav1.4/Q657E", "setting": "Nav1.4/Q657E; 1 μM, n = 4–5 cells", "result": "significantly inhibited"},
      {"measurement": "IC50", "setting": "Nav1.4/Q657E; mean ± SEM, n = 4–5 cells per data point", "result": "269 ± 14.9", "unit": "nM"},
      {"measurement": "activity on Nav1.7/E818Q", "setting": "Nav1.7/E818Q", "result": "no activity"}
    ]}
  ]
}
